According to patent US20130096097A1, “PHARMACEUTICAL MULTIMERIC PARTICLES, AND MANUFACTURING METHOD FOR SAME” (JAPAN SCIENCE AND TECHNOLOGY AGENCY, priority 2010, published 2013):

What was measured:
[1] = Particle size of dimer nanoparticles in aqueous dispersion made by reprecipitation; format: physicochemical; conditions: 5 mM DMSO solution injected into water at room temperature, final concentration 0.05 mM
Method: (§1) Dimer of SN-38 and succinic acid was weighed out to be 5 mM, and dissolved in DMSO 150 μl. Using water as poor solvent, 100 μl of the DMSO solution was injected into water 10 ml with syringe at room temperature, thus aqueous dispersion solution of dimer nanoparticles was prepared. Final concentration of the aqueous dispersion solution was 0.05 mM. The particle size was 50 nm (FIG. 1).
as §1, with “tetramethylene diisocyanate” for “succinic acid”, “in” for “in DMSO”, “μl of DMSO.” for “μl.”, “2).” for “1).”
as §1, with “of betamethasone valerate” for “of SN-38”, “in” for “in DMSO”, “150 μl of DMSO.” for “150 μl.”, “was 150” for “was 50”, “(FIG. 2).” for “(FIG. 1).”

[2] = test system: Human liver cancer cell lines HepG2; assay: In vitro anticancer activity, cell viability by Cell Counting Kit-8; format: cell-based; conditions: for anticancer activity against HepG2 (cell viability): 0.15625-10 μM in terms of SN-38 monomer, 48 hours, FIG. 3
Method: Human liver cancer cell lines HepG2 was seeded on 96-well plate in 2×10^4 cells/well. Next day, irinotecan, SN-38 bulk crystal, SN-38 diester dimer nanoparticle, and SN-38 diisocyanate dimer nanoparticle were added to the HepG2 cell culture in an amount to be 0.15625, 0.3125, 0.625, 1.25, 2.5, 5 or 10 μM in terms of SN-38 monomer. After cultivating for 48 hours, the cell viability was measured by a colorimetric method using Cell Counting Kit-8 (manufactured by DOJINDO) and microplate reader (manufactured by BIO-RAD). […] In addition, it became obvious that when SN-38 was dimerized via ester bond or urethane bond, or further nanoparticulated, the anticancer activity thereof can be retained (FIG. 3).
Further, two kinds of aqueous dispersion solution of SN-38 dimer nanoparticles were left at room temperature for about one week, thus prepared aging sample.
In FIG. 3 and FIG. 4, there was no difference in the anticancer activity against HepG2 between the binding modes included in the SN-38 dimer nanoparticles, namely, ester bond and urethane bond. That is, both bonds are expected to be decomposed at about the same speed in the solution, and SN-38 monomers are formed. To confirm this, SN-38 is dimerized with low degradable ether bond, further subjected to aging, then studied the anticancer activity against HepG2. The treatment concentration at this time was made 0.1, 1, 10 μM in terms of SN-38.

[3] = cited from earlier work

Compound	particle size [1]	anticancer activity against HepG2 (cell viability) [2]	further results
CCCCC(=O)O[C@]1(C(=O)COC(=O)CCC(=O)OCC(=O)[C@@]2(OC(=O)CCCC)[C@@H](C)C[C@H]3[C@@H]4CCC5=CC(=O)C=C[C@]5(C)[C@@]4(F)[C@@H](O)C[C@@]32C)[C@@H](C)C[C@H]2[C@@H]3CCC4=CC(=O)C=C[C@]4(C)[C@@]3(F)[C@@H](O)C[C@@]21C [Compound 19-(b)]	150 nm		
CCc1c2c(nc3ccc(OC/C=C/COc4ccc5nc6c(c(CC)c5c4)Cn4c-6cc5c(c4=O)COC(=O)C5(O)CC)cc13)-c1cc3c(c(=O)n1C2)COC(=O)C3(O)CC (centres unmarked) [Compound 18-(d), bis(7-ethylcamptothecin-10-oxy)2-buten ether]			anticancer activity against HepG2 ([2]; 0.1, 1, 10 μM in terms of SN-38, FIG. 5): almost disappeared; aging effect on anticancer activity against HepG2 ([2]; 0.1, 1, 10 μM in terms of SN-38, aged sample, FIG. 5): little
CCc1c2c(nc3ccc(OC(=O)CCC(=O)Oc4ccc5nc6c(c(CC)c5c4)Cn4c-6cc5c(c4=O)COC(=O)C5(O)CC)cc13)-c1cc3c(c(=O)n1C2)COC(=O)C3(O)CC (centres unmarked) [Compound 18-(b), succinic acid bis(7-ethylcamptothecin-10-yl)ester]	50 nm	remarkable anticancer activity	
CC[C@@]1(O)C(=O)OCc2c1cc1n(c2=O)Cc2cc3ccccc3nc2-1 [Camptothecin]			water-solubility [3]: extremely insoluble in water
CCc1c2c(nc3ccc(OC(=O)N4CCC(N5CCCCC5)CC4)cc13)-c1cc3c(c(=O)n1C2)COC(=O)[C@]3(O)CC [irinotecan, 7-ethyl-10-[4-(1-piperidino)-1-piperidino]carbonyloxycamptothecin, reference compound]		almost no anticancer activity	
CCc1c2c(nc3ccc(OC(=O)NCCCCNC(=O)Oc4ccc5nc6c(c(CC)c5c4)Cn4c-6cc5c(c4=O)COC(=O)C5(O)CC)cc13)-c1cc3c(c(=O)n1C2)COC(=O)C3(O)CC (centres unmarked) [Compound 18-(c), butylene bis(7-ethylcamptothecin-10-yl)amide]	50 nm	remarkable anticancer activity	
CCc1c2c(nc3ccc(O)cc13)-c1cc3c(c(=O)n1C2)COC(=O)[C@]3(O)CC [SN-38, 10-hydroxy-7-ethylcamptothecin, reference compound]		remarkable anticancer activity	water-solubility [3]: extremely poor
